From ChEMBL document CHEMBL1130702, “Novel cytotoxic diterpenes from the stem of Dysoxylum kuskusense” (Bioorg Med Chem Lett, 1998) come the findings set out here.

Common to all, as to type: functional, cell-based
Conditions in all cases: Homo sapiens

For one assay, the system named is K562. Briefly: Compound was tested for cytotoxicity against K-562 (leukemia) cell line.
The test system of assay [1] is HL-60. Nature of the assay: Compound was tested for cytotoxicity against HL-60 (TB) cell line.
The next assay deals with NCI-H522. Briefly: Compound was tested for cytotoxicity against NCI-H522 (lung tumor)cell line.
The test system of assay [2] is HL-60. Nature of the assay: Compound was tested for cytotoxicity against HL-60(TB) leukemia tumor cell line.

For `CC1=CC(=O)C[C@]2(C)CC[C@@H](C(C)CC(=O)CC(C)C)C[C@@H]12` (stereo not given in full), the EC50 was determined as 5.04 µM with K562, 2.25 µM with HL-60 [1] and 4.8 µM in the assay with NCI-H522.

Regarding `CC1=CC(=O)C[C@]2(C)CC[C@@H](C(C)CC(=O)CC(C)C)C[C@@]12OO` (stereo not given in full), a half-maximal response in the assay on HL-60 [2] (EC50) required 6.35 µM.

In the assay with HL-60 [2], `CC1=CC(=O)C[C@@]2(C)CC[C@@H](C(C)CC(=O)CC(C)C)C[C@@]12OO` (stereo not given in full) gave a half-maximal effective concentration (EC50) of 2.37 µM.
